Results published in article PMC11823630, “In vitro potentiation of tetracyclines in Pseudomonas aeruginosa by RW01, a new cyclic peptide” (Antimicrobial Agents and Chemotherapy, 2024).
≈ marks a conversion by molar mass, not a printed value. Where two headings read alike, the source gives them in different places.

Key:
[1] = tested on: PAO1 mutant MIN2_RW01_1, pmrB(V215L); experiment: MIC, E-test on MHA; type: cell-based; conditions: Pseudomonas aeruginosa, PAO1, read-out: MIC, E-test
[2] = tested on: PAO1 mutant MIN8_1, nalD(R3C), pilM(Q62X); experiment: MIC, E-test on MHA; type: cell-based; conditions: Pseudomonas aeruginosa, PAO1, read-out: MIC, E-test
[3] = tested on: PAO1 mutant MIN4_RW01_4, pmrB(Y98N); experiment: MIC, E-test on MHA; type: cell-based; conditions: Pseudomonas aeruginosa, PAO1, read-out: MIC, E-test
P. aeruginosa PAO1, WT = experiment: MIC, E-test on MHA; type: cell-based; conditions: Pseudomonas aeruginosa, PAO1, read-out: MIC, E-test
[4] = tested on: PAO1 mutant MIN1_RW01_1, pmrB(Y98N); experiment: MIC, E-test on MHA; type: cell-based; conditions: Pseudomonas aeruginosa, PAO1, read-out: MIC, E-test
[5] = tested on: PAO1 mutant MIN8_3, pilZ(nt18InsT); experiment: MIC, E-test on MHA; type: cell-based; conditions: Pseudomonas aeruginosa, PAO1, read-out: MIC, E-test
[6] = tested on: PAO1 mutant MIN4_RW01_3, pmrB(M292T); experiment: MIC, E-test on MHA; type: cell-based; conditions: Pseudomonas aeruginosa, PAO1, read-out: MIC, E-test
[7] = tested on: PAO1 mutant MIN1_RW01_4, pmrB(F124L); experiment: MIC, E-test on MHA; type: cell-based; conditions: Pseudomonas aeruginosa, PAO1, read-out: MIC, E-test
[8] = tested on: PAO1 mutant MIN4_RW01_1, pmrB(R429H); experiment: MIC, E-test on MHA; type: cell-based; conditions: Pseudomonas aeruginosa, PAO1, read-out: MIC, E-test
[9] = tested on: PAO1 mutant MIN4_RW01_2, pmrB(F124S); experiment: MIC, E-test on MHA; type: cell-based; conditions: Pseudomonas aeruginosa, PAO1, read-out: MIC, E-test
[10] = tested on: PAO1 mutant MIN16_4, nalC(T50P), pilM(Q62X); experiment: MIC, E-test on MHA; type: cell-based; conditions: Pseudomonas aeruginosa, PAO1, read-out: MIC, E-test
[11] = tested on: PAO1 mutant MIN2_RW01_3, parS(V152A); experiment: MIC, E-test on MHA; type: cell-based; conditions: Pseudomonas aeruginosa, PAO1, read-out: MIC, E-test
[12] = tested on: PAO1 mutant MIN16_2, nalC(aa9∆4), pilQ(nt46∆1); experiment: MIC, E-test on MHA; type: cell-based; conditions: Pseudomonas aeruginosa, PAO1, read-out: MIC, E-test
[13] = tested on: PAO1 mutant MIN8_4, pilZ(nt18InsT); experiment: MIC, E-test on MHA; type: cell-based; conditions: Pseudomonas aeruginosa, PAO1, read-out: MIC, E-test
[14] = tested on: PAO1 mutant MIN16_1, nalD(T43P); experiment: MIC, E-test on MHA; type: cell-based; conditions: Pseudomonas aeruginosa, PAO1, read-out: MIC, E-test
P. aeruginosa 125A = experiment: MIC, CLSI broth microdilution in BD Phoenix AST Broth; type: cell-based, Pseudomonas aeruginosa; conditions: strain 125A
P. aeruginosa 41B = experiment: as above; type: cell-based, Pseudomonas aeruginosa; conditions: strain 41B
P. aeruginosa PAOΔoprM = experiment: as above; type: cell-based, Pseudomonas aeruginosa
P. aeruginosa PAOΔmexR = experiment: as above; type: cell-based, Pseudomonas aeruginosa; conditions: strain PAOΔmexR
P. aeruginosa 125B = experiment: as above; type: cell-based, Pseudomonas aeruginosa; conditions: strain 125B
P. aeruginosa PAOUW∆oprF = experiment: as above; type: cell-based, Pseudomonas aeruginosa
P. aeruginosa 41A = experiment: as above; type: cell-based, Pseudomonas aeruginosa; conditions: strain 41A
P. aeruginosa PAOΔmexZ = experiment: as above; type: cell-based, Pseudomonas aeruginosa; conditions: strain PAOΔmexZ; for MIC: agent alone, 37°C, 18–22 h, three biological replicates
P. aeruginosa PAOUW = experiment: as above; type: cell-based, Pseudomonas aeruginosa; conditions: strain PAOUW; for MIC: agent alone, 37°C, 18–22 h, three biological replicates
P. aeruginosa PAO1 = experiment: as above; type: cell-based, Pseudomonas aeruginosa; conditions: for MIC: Pseudomonas aeruginosa
[15] = tested on: PAO1 mutant MIN2_RW01_4, pmrB(M292T); experiment: MIC, E-test on MHA; type: cell-based; conditions: Pseudomonas aeruginosa, PAO1, read-out: MIC, E-test
[16] = Pseudomonas aeruginosa, agent alone, 37°C, 18–22 h, three biological replicates
[17] = MIC of the antibiotic with fixed 100 mg/L RW01
[18] = antibiotic MIC alone vs with RW01 100 mg/L
[19] = antibiotic with RW01 at 100 mg/L
[20] = strain PAOΔoprM, antibiotic with RW01 at 100 mg/L
[21] = strain PAOUWΔoprF (printed PAOΔoprF), antibiotic with RW01 at 100 mg/L
[22] = strain PAO1, antibiotic with RW01 at 100 mg/L

`CN(C)c1cc(NC(=O)CNC(C)(C)C)c(O)c2c1C[C@H]1C[C@H]3[C@H](N(C)C)C(O)=C(C(N)=O)C(=O)[C@@]3(O)C(O)=C1C2=O` [Tigecycline, tigecycline] was tested. Which MIC [1] did it give?
The MIC was 24 µg/mL (≈ 41 µM).

And the MIC [2]?
The MIC was 32 µg/mL (≈ 54.6 µM).

What about the MIC [3] of the same compound?
The MIC was 32 µg/mL (≈ 54.6 µM).

And the MIC (P. aeruginosa PAO1, WT)?
The MIC was 6 to 8 µg/mL (≈ 10.2 to 13.7 µM).

What about the MIC [4] of the same compound?
Its MIC is 24 µg/mL (≈ 41 µM).

And the MIC [5]?
Its MIC is 16 µg/mL (≈ 27.3 µM).

What about the MIC [6] of the same compound?
Its MIC is 32 µg/mL (≈ 54.6 µM).

And the MIC [7]?
The MIC was 24 µg/mL (≈ 41 µM).

And the MIC [8]?
Its MIC is 16 µg/mL (≈ 27.3 µM).

And the MIC [9]?
The MIC was 16 µg/mL (≈ 27.3 µM).

And the MIC [10]?
The MIC was 16 µg/mL (≈ 27.3 µM).

And the MIC [11]?
The MIC was 48 µg/mL (≈ 82 µM).

And the MIC [12]?
Its MIC is 32 µg/mL (≈ 54.6 µM).

What about the MIC [13] of the same compound?
Its MIC is 32 µg/mL (≈ 54.6 µM).

And the MIC [14]?
The MIC was 16 µg/mL (≈ 27.3 µM).

And the MIC (P. aeruginosa 125A; [16])?
Its MIC is 8 µg/mL.

What about the “Antibiotic MIC + RW01 100 mg/L” value (P. aeruginosa 125A; [17]) of the same compound?
The value was 1 µg/mL.

And the “Potentiation (fold)” value (P. aeruginosa 125A; [18])?
The value was 8 fold.

What about the FICI (P. aeruginosa 125A; [19]) of the same compound?
Its FICI is 0.320.

What about the FICI-determined effect (P. aeruginosa 125A; [19]) of the same compound?
The FICI-determined effect was “Synergy (synergistic effect if FICI is ≤0.5)”.

What about the MIC (P. aeruginosa 41B; [16]) of the same compound?
Its MIC is 8 µg/mL.

What about the “Antibiotic MIC + RW01 100 mg/L” value (P. aeruginosa 41B; [17]) of the same compound?
Its value is 2 µg/mL.

And the “Potentiation (fold)” value (P. aeruginosa 41B; [18])?
Its value is 4 fold.

And the FICI (P. aeruginosa 41B; [19])?
The FICI was 0.348.

What about the FICI-determined effect (P. aeruginosa 41B; [19]) of the same compound?
Its FICI-determined effect is “Synergy (synergistic effect if FICI is ≤0.5)”.

What about the MIC (P. aeruginosa PAOΔoprM; Pseudomonas aeruginosa) of the same compound?
Its MIC is 1 µg/mL.

And the “Antibiotic MIC + RW01 100 mg/L” value (P. aeruginosa PAOΔoprM; strain PAOΔoprM, MIC of the antibiotic with fixed 100 mg/L RW01)?
The value was 1 µg/mL.

And the “Potentiation (fold)” value (P. aeruginosa PAOΔoprM; strain PAOΔoprM, antibiotic MIC alone vs with RW01 100 mg/L)?
Its value is 1 fold.

What about the FICI (P. aeruginosa PAOΔoprM; [20]) of the same compound?
The FICI was 1.098.

What about the FICI-determined effect (P. aeruginosa PAOΔoprM; [20]) of the same compound?
The FICI-determined effect was “Indifference (indifferent effect if 1.0 < FICI ≤ 2.0)”.

And the “Antibiotic MIC + RW01 100 mg/L” value (P. aeruginosa PAOΔmexR; [17])?
The value was 1 µg/mL.

And the “Potentiation (fold)” value (P. aeruginosa PAOΔmexR; [18])?
Its value is 8 fold.

And the FICI (P. aeruginosa PAOΔmexR; [19])?
The FICI was 0.223.

And the FICI-determined effect (P. aeruginosa PAOΔmexR; [19])?
The FICI-determined effect was “Synergy (synergistic effect if FICI is ≤0.5)”.

What about the MIC (P. aeruginosa 125B; [16]) of the same compound?
Its MIC is 8 µg/mL.

What about the “Antibiotic MIC + RW01 100 mg/L” value (P. aeruginosa 125B; [17]) of the same compound?
Its value is 1 µg/mL.

What about the “Potentiation (fold)” value (P. aeruginosa 125B; [18]) of the same compound?
Its value is 8 fold.

What about the FICI (P. aeruginosa 125B; [19]) of the same compound?
The FICI was 0.320.

And the FICI-determined effect (P. aeruginosa 125B; [19])?
Its FICI-determined effect is “Synergy (synergistic effect if FICI is ≤0.5)”.

And the “Potentiation (fold)” value (P. aeruginosa PAOUW∆oprF; strain PAOUWΔoprF (printed PAOΔoprF), antibiotic MIC alone vs with RW01 100 mg/L)?
The value was 8 fold.

What about the FICI (P. aeruginosa PAOUW∆oprF; [21]) of the same compound?
Its FICI is 0.223.

And the FICI-determined effect (P. aeruginosa PAOUW∆oprF; [21])?
The FICI-determined effect was “Synergy (synergistic effect if FICI is ≤0.5)”.

And the MIC (P. aeruginosa PAOUW∆oprF; strain PAOUWΔoprF, agent alone, 37°C, 18–22 h, three biological replicates)?
The MIC was 16 µg/mL.

And the MIC (P. aeruginosa 41A; [16])?
The MIC was 8 µg/mL.

What about the “Antibiotic MIC + RW01 100 mg/L” value (P. aeruginosa 41A; [17]) of the same compound?
The value was 2 µg/mL.

What about the “Potentiation (fold)” value (P. aeruginosa 41A; [18]) of the same compound?
Its value is 4 fold.

What about the FICI (P. aeruginosa 41A; [19]) of the same compound?
Its FICI is 0.348.

What about the FICI-determined effect (P. aeruginosa 41A; [19]) of the same compound?
The FICI-determined effect was “Synergy (synergistic effect if FICI is ≤0.5)”.

And the MIC (P. aeruginosa PAOΔmexZ; Pseudomonas aeruginosa)?
Its MIC is 16 µg/mL.

And the MIC (P. aeruginosa PAOΔmexZ)?
Its MIC is 8 µg/mL.

What about the “Potentiation (fold)” value (P. aeruginosa PAOΔmexZ; [18]) of the same compound?
Its value is 8 fold.

And the FICI (P. aeruginosa PAOΔmexZ; [19])?
Its FICI is 0.223.

And the FICI-determined effect (P. aeruginosa PAOΔmexZ; [19])?
Its FICI-determined effect is “Synergy (synergistic effect if FICI is ≤0.5)”.

What about the MIC (P. aeruginosa PAOUW; Pseudomonas aeruginosa, read-out: MIC) of the same compound?
Its MIC is 8 µg/mL.

What about the “Antibiotic MIC + RW01 100 mg/L” value (P. aeruginosa PAOUW; [17]) of the same compound?
The value was 1 µg/mL.

What about the MIC (P. aeruginosa PAOUW) of the same compound?
Its MIC is 4 µg/mL.

What about the “Potentiation (fold)” value (P. aeruginosa PAOUW; [18]) of the same compound?
The value was 4 fold.

What about the FICI (P. aeruginosa PAOUW; [19]) of the same compound?
Its FICI is 0.348.

And the FICI-determined effect (P. aeruginosa PAOUW; [19])?
The FICI-determined effect was “Synergy (synergistic effect if FICI is ≤0.5)”.

And the MIC (P. aeruginosa PAO1; PAO1)?
The MIC was 8 µg/mL.

And the MIC (P. aeruginosa PAO1; PAO1, strain PAO1, agent alone, 37°C, 18–22 h, three biological replicates, read-out: MIC)?
The MIC was 2 µg/mL.

What about the “Antibiotic MIC + RW01 100 mg/L” value (P. aeruginosa PAO1; strain PAO1, MIC of the antibiotic with fixed 100 mg/L RW01) of the same compound?
Its value is 2 µg/mL.

And the “Potentiation (fold)” value (P. aeruginosa PAO1; strain PAO1, antibiotic MIC alone vs with RW01 100 mg/L)?
Its value is 4 fold.

What about the FICI (P. aeruginosa PAO1; [22]) of the same compound?
The FICI was 0.445.

And the FICI-determined effect (P. aeruginosa PAO1; [22])?
Its FICI-determined effect is “Synergy (synergistic effect if FICI is ≤0.5)”.

And the MIC [15]?
Its MIC is 16 µg/mL (≈ 27.3 µM).
